Measurements from patent US20190314361A1 (Athenex Therapeutics Limited, priority 2018, published 2019).
Converted amounts (≈) assume the structure as drawn. “And” between values parts separate entries of the source, which are not always exact repeats. Equal values may be shown once. Read-outs that look alike come from different tables or passages of the source.

What was measured:
[1] = system: A431 vaginal epidermoid human cancer cell line; conditions: NU/Nu Balb/C mice, paclitaxel alone 30 mg/kg IV, 1x weekly for 3 weeks
Experimental: (§1) In these studies, tumor inhibition rate (IR %) was calculated as ([1−relative tumor growth in treated group/relative tumor growth in control group]×100). Tumor regression was calculated as (Mean Tumor WeightEnd of treatment/Mean tumor WeightBeginning of treatment)×100. Therefore, a value <100% for tumor regression indicates a decrease in tumor weight over the course of the study and a value >100% indicates an increase in tumor weight. Tumor growth delay was calculated as the median number of days to reach two tumor mass doublings.

[2] = system: HT-29 colon human cancer cell line; conditions: NU/Nu Balb/C mice
Experimental: as §1

[3] = system: MDA-MB-231 mammary human cancer cell line; conditions: NCr-nu (athymic) mice, paclitaxel alone 18 mg/kg IV, every other day for 4 doses
Experimental: as §1

[4] = system: NCI-H460 lung human cancer cell line; conditions: Athymic nude mice, paclitaxel alone 24 mg/kg IV, every other day for 4 doses
Experimental: as §1

[5] = system: SK-OV-3 ovarian human cancer cell line; conditions: NCr-nu (athymic) mice, paclitaxel alone 18 mg/kg IV, every other day for 4 doses
Experimental: as §1

[6] = system: SKOV-3 ovarian human cancer cell line; conditions: NU/Nu Balb/C mice, paclitaxel alone 30 mg/kg IV, 1x weekly for 3 weeks
Experimental: as §1

[7] = Paclitaxel pharmacokinetics in rats after single oral dose with Compound A; format: in vivo, rat
[8] = Paclitaxel pharmacokinetics in dogs after single oral dose with Compound A; format: in vivo, dog
[9] = system: MS1 cells; experiment: In vitro cytotoxicity (MTT) in MS1 cells; format: cell-based, mouse; conditions: MS1, 72 hours, Mean ± SD
Experimental: (§2) Three independent experiments of two replicates were completed. A 10 μL aliquot of 3-(4,5-dimethylthiazol-2-yl)-2,5-diphenyltetrazolium bromide (MTT) solution (5 mg/mL in PBS) was added to each well and incubated at 37° C. for 2 hours. The culture medium was removed followed by addition of 100 μL of DMSO to each well. The absorbance in each well was measured at 540 nm using a SpectraMax microplate reader. A sigmoid Emax model using nonlinear regression (Equation 1) with least squares fit was used to estimate Emax and GI50 values using GraphPad Prism 6 for each experiment:
(§3) The average Emax and GI50 values and standard deviated from three individual experiments were calculated and reported. R-squared of all curve fits exceeded 0.9.

[10] = system: SVRA221a cells; experiment: In vitro cytotoxicity (MTT) in SVRA221a cells; format: cell-based, mouse; conditions: 72 hours, Mean ± SD
Experimental: as §2, §3

[11] = system: SVRbag4 cells; experiment: In vitro cytotoxicity (MTT) in SVRbag4 cells; format: cell-based, mouse; conditions: SVRbag4, 72 hours, Mean ± SD
Experimental: as §2, §3

[12] = system: HMEC-1 cells; experiment: In vitro cytotoxicity (MTT) in HMEC-1 cells; format: cell-based, human; conditions: HMEC-1, 72 hours, Mean ± SD
Experimental: as §2, §3

[13] = system: tubulin in MS1, SVRA221a, and SVRbag4 cell lines; experiment: Immunofluorescence microscopy of tubulin disruption; format: cell-based, mouse; conditions: SVRbag4 treated with 1-100 nM paclitaxel for 3 hours
Experimental: Coverslips (22-mm) were pre-coated with rat tail collagen for 1 hour then seeded with cells in 6-well plates for 24 hours before treatment. […] After blocking with 2% BSA in PBS for 30 min, cells were incubated with anti α-tubulin antibody (Sigma 6199) diluted in blocking buffer (2% BSA in PBS) for 1.5 hours at room temperature. Cells were washed three times with PBS and incubated with […] anti-Mouse IgG (Invitrogen) for 1 hours at room temperature. Following three PBS washes, coverslips were mounted on glass slides in ProLong antifade reagent (Invitrogen). Fluorescent images were captured using a Nikon TE2000-E inverted microscope for two independent experiments.

[14] = for AUCinf / AUClast / CL/F / Cmax / MRTinf / Vd/F / t1/2 / CLR: in vivo, po
[15] = human; for AUC0-24 / Cmax: range across dose levels, 2 consecutive daily oral doses
Experimental: A 2-part study was conducted in subjects with advanced/metastatic or recurrent gastric cancer. […] In some cases, an additional 15 mg tablet of Compound A on Day 2 was given in each dosing week. A total of 56 subjects enrolled in this study: 10 subjects with advanced malignant tumors in Part 1 and 46 subjects with advanced gastric cancer in Part 2.

[16] = dogs
[17] = single oral dose paclitaxel 5 mg/kg with Compound A
[18] = single oral dose paclitaxel 10 mg/kg with Compound A
[19] = single oral dose paclitaxel 20 mg/kg with Compound A
[20] = single oral dose paclitaxel 30 mg/kg with Compound A
[21] = single oral dose paclitaxel 40 mg/kg with Compound A
[22] = single oral dose paclitaxel 50 mg/kg with Compound A
[23] = single oral dose paclitaxel 2 mg/kg with Compound A
[24] = single oral dose paclitaxel 4 mg/kg with Compound A
[25] = single oral dose paclitaxel 6 mg/kg with Compound A
[26] = Mus musculus, medium pre-supplemented with 1 μM Compound A
[27] = Fasted, single oral dose paclitaxel 6 mg/kg with Compound A 3 mg/kg
[28] = Fed, single oral dose paclitaxel 6 mg/kg with Compound A 3 mg/kg

CC(=O)O[C@H]1C(=O)[C@@]2(C)[C@H]([C@H](OC(=O)c3ccccc3)[C@]3(O)C[C@H](OC(=O)[C@H](O)[C@@H](NC(=O)c4ccccc4)c4ccccc4)C(C)=C1C3(C)C)[C@]1(OC(C)=O)CO[C@@H]1C[C@@H]2O [Paclitaxel, 5,20-Epoxy-1,2,4,7,10-13-hexahydroxytax-11-en-9-one-4,10-diacetate 2-benzoate 13-ester with (2R,3S)—N-benzoyl-3-phenylisoserine]
Effect: tumor inhibition rate (IR %) [1]: 45.41 IR %
Effect: tumor regression ([2]; paclitaxel alone 20 mg/kg IV every 4 days for 4 doses, >100% = increase in tumor weight): 163.09% tumor
Effect: tumor inhibition rate (IR %) ([2]; paclitaxel alone 25 mg/kg IP every 4 days for 4 doses): 65.82 IR %
Effect: growth delay [3]: >55.9 days
Effect: growth delay [4]: 16.3 days
Effect: growth delay [5]: 43.8 days
Effect: tumor inhibition rate (IR %) [6]: 72.79 IR %
AUClast Paclitaxel [7, 17]: 333 ng·h/mL
Cmax Paclitaxel [7, 17]: 103 ng/mL
Tmax Paclitaxel [7, 17]: 0.6 h
AUClast Paclitaxel [7, 18]: 1027 ng·h/mL
Cmax Paclitaxel [7, 18]: 356 ng/mL
Tmax Paclitaxel [7, 18]: 0.7 h
AUClast Paclitaxel [7, 19]: 3009 ng·h/mL
Cmax Paclitaxel [7, 19]: 852 ng/mL
Tmax Paclitaxel [7, 19]: 1.2 h
AUClast Paclitaxel [7, 20]: 6638 ng·h/mL
Cmax Paclitaxel [7, 20]: 1761 ng/mL
Tmax Paclitaxel [7, 20]: 1.2 h
t1/2 Paclitaxel [7, 20]: 6.0 h
AUClast Paclitaxel [7, 21]: 11052 ng·h/mL
Cmax Paclitaxel [7, 21]: 2488 ng/mL
Tmax Paclitaxel [7, 21]: 1.5 h
t1/2 Paclitaxel [7, 21]: 5.5 h
AUClast Paclitaxel [7, 22]: 13124 ng·h/mL
Cmax Paclitaxel [7, 22]: 3067 ng/mL
Tmax Paclitaxel [7, 22]: 1.4 h
t1/2 Paclitaxel [7, 22]: 5.3 h
AUClast Paclitaxel [8, 23]: 413 ng·h/mL
Tmax Paclitaxel [8, 23]: 30 min
AUClast Paclitaxel [8, 24]: 1331 ng·h/mL
Tmax Paclitaxel [8, 24]: 42 min
AUClast Paclitaxel [8, 25]: 2123 ng·h/mL
Tmax Paclitaxel [8, 25]: 30 min
Emax (% inhibition) [9]: 93 ± 4.5 % inhibition
GI50 ([9]; Mus musculus, MS-1, medium pre-supplemented with 1 μM Compound A): 1.8 ± 0.36 ng/mL (≈ 2.11 nM)
Emax (% inhibition) [10]: 96 ± 1.1 % inhibition
GI50 [10, 26]: 1.8 ± 1 ng/mL (≈ 2.11 nM)
GI50 [11, 26]: 3.9 ± 1 ng/mL (≈ 4.57 nM)
Emax (% inhibition) [11]: 99 ± 1.4 % inhibition
Emax (% inhibition) [12]: 99 ± 0.10 % inhibition
GI50 ([12]; Homo sapiens, medium pre-supplemented with 1 μM Compound A): 0.46 ± 0.23 ng/mL (≈ 0.539 nM)
concentration at which condensed and rounded morphology and polymerization of microtubules start [13]: 5-10 nM and 4.2-8.5 ng/mL
MTD ([14]; 24 subjects with advanced solid cancer, oral paclitaxel 60 to 420 mg/m^2 on days 1, 8, 15 of 28-day cycle with Compound A): not reached
AUCinf ([14]; human, 60 mg/m2): 727.1 µg·h/L
AUClast ([14]; human, 60 mg/m2): 584.1 µg·h/L
CL/F ([14]; human, 60 mg/m2): 178.4 L/h
Cmax ([14]; human, 60 mg/m2): 149.6 µg/L
MRTinf ([14]; human, 60 mg/m2): 28.6 h
Vd/F ([14]; human, 60 mg/m2): 9128.7 L
t1/2 ([14]; human, 60 mg/m2): 32.1 h
AUCinf ([14]; human, 120 mg/m2): 1840.1 µg·h/L
AUClast ([14]; human, 120 mg/m2): 1611.1 µg·h/L
CLR ([14]; human, 120 mg/m2): 3.0 L/h
MRTinf ([14]; human, 120 mg/m2): 17.0 h
Vd/F ([14]; human, 120 mg/m2): 4036.0 L
AUCinf ([14]; human, 180 mg/m2): 1985.0 µg·h/L
AUClast ([14]; human, 180 mg/m2): 1673.9 µg·h/L
CL/F ([14]; human, 180 mg/m2): 173.4 L/h
CLR ([14]; human, 180 mg/m2): 1.8 L/h
Cmax ([14]; human, 180 mg/m2): 432.0 µg/L
MRTinf ([14]; human, 180 mg/m2): 21.9 h
Vd/F ([14]; human, 180 mg/m2): 6030.7 L
t1/2 ([14]; human, 180 mg/m2): 24.4 h
AUCinf ([14]; human, 240 mg/m2): 2971.2 µg·h/L
AUClast ([14]; human, 240 mg/m2): 2547.4 µg·h/L
CL/F ([14]; human, 240 mg/m2): 147.6 L/h
CLR ([14]; human, 240 mg/m2): 2.4 L/h
Cmax ([14]; human, 240 mg/m2): 509.6 µg/L
MRTinf ([14]; human, 240 mg/m2): 23.4 h
Vd/F ([14]; human, 240 mg/m2): 6011.5 L
t1/2 ([14]; human, 240 mg/m2): 25.7 h
AUCinf ([14]; human, 300 mg/m2): 3481.1 µg·h/L
AUClast ([14]; human, 300 mg/m2): 3135.0 µg·h/L
CLR ([14]; human, 300 mg/m2): 2.0 L/h
MRTinf ([14]; human, 300 mg/m2): 16.2 h
Vd/F ([14]; human, 300 mg/m2): 4927.3 L
AUCinf ([14]; human, 360 mg/m2): 2851.7 µg·h/L
AUClast ([14]; human, 360 mg/m2): 2512.1 µg·h/L
CL/F ([14]; human, 360 mg/m2): 228.7 L/h
CLR ([14]; human, 360 mg/m2): 7.3 L/h
Cmax ([14]; human, 360 mg/m2): 655.0 µg/L
MRTinf ([14]; human, 360 mg/m2): 18.7 h
Vd/F ([14]; human, 360 mg/m2): 6837.8 L
t1/2 ([14]; human, 360 mg/m2): 20.8 h
AUCinf ([14]; human, 420 mg/m2): 3731.5 µg·h/L
AUClast ([14]; human, 420 mg/m2): 3407.1 µg·h/L
CL/F ([14]; human, 420 mg/m2): 244.9 L/h
CLR ([14]; human, 420 mg/m2): 2.9 L/h
Cmax ([14]; human, 420 mg/m2): 707.5 µg/L
MRTinf ([14]; human, 420 mg/m2): 14.7 h
Vd/F ([14]; human, 420 mg/m2): 7175.1 L
t1/2 ([14]; human, 420 mg/m2): 19.9 h
T1/2 ([14]; human, range over oral paclitaxel doses 60 to 420 mg/m^2 with Compound A): 19.9 to 32.1 h
Overall exposure on Day 2, higher than Day 1 ([15]; in vivo, po): 20-30%
AUC0-24 ([15]; Day 1): 611 to 894 ng·h/mL
Cmax ([15]; Day 1): 202 to 280 ng/mL
AUC0-24 ([15]; Day 2): 735 to 1081 ng·h/mL
Cmax ([15]; Day 2): 159 to 315 ng/mL
AUClast [16, 27]: 1599.8 ± 416.5 ng·h/mL
CL/F [16, 27]: 4.2 ± 1.2 L/h
Tmax [16, 27]: 30 ± 0 min
t1/2 [16, 27]: 9.4 ± 0.3 h
AUClast [16, 28]: 849.1 ± 119.9 ng·h/mL
CL/F [16, 28]: 6.4 ± 1.3 L/h
Cmax [16, 28]: 299.0 ± 54.6 ng/mL
Tmax [16, 28]: 42 ± 12 min
t1/2 [16, 28]: 9.9 ± 2.7 h
Paclitaxel Cmax and AUC, fasted group as compared to fed group ([16]; orally administered paclitaxel): ~2 fold
